Laboratory results taken from ChEMBL document CHEMBL5131483, “Design, chemical synthesis and antiviral evaluation of 2'-deoxy-2'-fluoro-2'-C-methyl-4'-thionucleosides” (Bioorg Med Chem Lett, 2022).
pEC50: −log10 of the molar value.

What was measured:
Hepatitis C virus = experiment: Antiviral activity against HCV by replicon assay; assay type: functional, organism-based, Hepacivirus hominis
[1] = Cytotoxicity against human U-87 MG cells measured after 3 days by Celltiter-glo assay; assay type: functional, U-87MG ATCC; conditions: 72 h, time 3 day

SMILES	pEC50 (Hepatitis C virus)	CC50 [1] [µM]
C[C@@]1(F)[C@H](O)[C@@H](CO)S[C@@H]1n1ccc(N)nc1=O	< 4.00	–
Nc1ccn([C@@H]2S[C@H](CO)[C@@H](O)C2(F)F)c(=O)n1	4.65	–
CC(C)OC(=O)[C@@H](C)N[P@](=O)(OC[C@H]1S[C@@H](n2ccc(=O)[nH]c2=O)[C@](C)(F)[C@@H]1O)Oc1ccccc1	5.52	–
Nc1ccn([C@H]2[C@H](O)[C@H](O)[C@@H](CO)[S+]2[O-])c(=O)n1 (stereo not given in full)	< 4.00	–
C[C@@]1(F)[C@H](O)[C@@H](CO)S[C@H]1n1ccc(N)nc1=O	< 4.00	–
C[C@@]1(F)[C@H](O)[C@@H](CO)S[C@H]1n1ccc(=O)[nH]c1=O	< 4.00	–
C[C@@]1(F)[C@H](O)[C@@H](CO)S[C@@H]1n1ccc(=O)[nH]c1=O	< 4.00	–
Nc1ccn([C@@H]2[S+]([O-])[C@H](CO)[C@@H](O)C2(F)F)c(=O)n1 (mixture of isomers)	4.66	–
Nc1ccn([C@H]2[C@@H](O)[C@H](O)[C@@H](CO)[S+]2[O-])c(=O)n1 (mixture of isomers)	< 4.00	–
O=c1ccn([C@@H]2O[C@H](CO)[C@@H](O)[C@@H]2O)c(=O)[nH]1 [ARAURIDINE]	< 4.00	–
Nc1ccn([C@@H]2O[C@H](CO)[C@@H](O)[C@@H]2O)c(=O)n1 [CYTARABINE]	6.80	0.19
Nc1ccn([C@@H]2O[C@H](CO)[C@@H](O)[C@H]2O)c(=O)n1 [CYTIDINE]	4.30	–
CC(C)OC(=O)[C@H](C)N[P@](=O)(OC[C@H]1O[C@@H](n2ccc(=O)[nH]c2=O)[C@](C)(F)[C@@H]1O)Oc1ccccc1 [SOFOSBUVIR]	7.52	–
O=c1ccn([C@@H]2O[C@H](CO)[C@@H](O)[C@H]2O)c(=O)[nH]1 [URIDINE]	4.18	–
